Patent US20240050408A1, “USE OF MGLUR5 ANTAGONISTS FOR TREATING AMPHETAMINE ADDICTION” (NOVARTIS AG, priority 2020, published 2024)

Columns and labels:
Assay type in all cases: in vivo, human
[1] = tested on: patients with Cocaine Use Disorder (CUD); test: Phase 2 trial: abstinence in the last weeks of treatment (TLFB and negative urine BE); conditions: self-report (TLFB) and negative urine BE; placebo 16.7%; P=0.040
Experimental: (§1) This study was conducted in patients with CUD and consisted of about a 21-day screening period followed by a 7-day baseline period, a 98-day outpatient treatment period, and an end of study visit evaluation about 14 days after the last study drug administration ([…]. A). Study treatment was taken twice daily (separated by about 12-hour intervals) with food. For patients in the mavoglurant arm [mavoglurant (free form) provided as modified release formulation (e.g. in WO2014/199316)], an uptitration regimen was performed for 14 days (50 mg b.i.d. from Days 1 to 7 and 100 mg b.i.d from Days 8 to 14) and was followed by 200 mg b.i.d for 84 days.
A subject was considered abstinent the last x weeks of treatment if they completed the 14-week treatment period and were abstinent the last x weeks (with x=1, 2, 3. . . . , 14).
A subject was considered abstinent the last x weeks of treatment if they completed the 14-week treatment period and were abstinent the last x weeks (with x=1, 2, 3. . . . , 14). […] Binary response variables based on abstinence were calculated.
This analysis was added in order to inform on abstinence rates as this is an important endpoint in Phase III CUD studies. Binary response variables based on abstinence were calculated.

[2] = tested on: patients with Cocaine Use Disorder (CUD); test: Phase 2 trial: anxiety (STAI) and depressive symptoms (BDI-II); conditions: for anxiety symptoms by STAI: difference vs placebo not statistically significant (P=0.144 S-Anxiety, P=0.425 T-Anxiety); for depressive symptoms by BDI: difference vs placebo not statistically significant (P=0.696 BDI-II)
Experimental: as §1
Patient Reported Outcome included: • 1. The TLFB cocaine: is a cocaine assessment method that obtains estimates of daily cocaine intake and has been evaluated with clinical and nonclinical populations. Using a calendar, people provide retrospective estimates of their daily cocaine use over a specified time period that can vary up to 12 months from the interview date. Several memory aids can be used to enhance recall (e.g., calendar; key dates serve as anchors for reporting cocaine use). […] The method is recommended for use when relatively precise estimates of cocaine use are necessary, especially when a complete use pre-posttreatment). Clinically, the TLFB can be used to provide feedback about one's cocaine consumption in an effort to increase a client's motivation to change. • 2. The TLFB alcohol: is a drinking assessment method that obtains estimates of daily drinking and has been evaluated with clinical and nonclinical populations. Using a calendar, people provide retrospective estimates of their daily drinking over a specified time period that can vary up to 12 months from the interview date. Several memory aids can be used to enhance recall (e.g., calendar; key dates serve as anchors for reporting drinking; standard drink conversion). […] The method is recommended for use when relatively precise estimates of drinking are necessary, especially when a complete picture of drinking days (i.e., high- and low-risk days) is needed (evaluating drinking pre/post-treatment). Clinically, the TLFB can be used to provide feedback about one's drinking in an effort to increase a client's motivation to change. Overall, the Alcohol TLFB method provides a relatively accurate portrayal of drinking, and has both clinical and research utility. • 3. The BDI-II: is instrument endorsed by the National Institute for Health and Clinical Excellence for use in primary care in measuring baseline depression severity and responsiveness to treatment. • 4. The STAI: is an assessment tool for measuring the presence and severity of current symptoms of anxiety and a generalized propensity to be anxious. […]

[3] = Phase 2 trial: safety and adverse events
Experimental: as §1
Data for vital signs, electrocardiogram (ECG) and clinical laboratory evaluations were summarized by treatment and visit/time. Mavoglurant plasma concentrations were recorded at pre-dose and 2 hour (±1 hour) sampling window after the morning dose and summary statistics for concentrations were provided for plasma.
Data for vital signs (BP, pulse rate, body temperature), ECGs, and clinical laboratory evaluations were listed by treatment, subject, visit/time; abnormalities were flagged (if ranges were available).
The number and percentage of subjects with AEs are tabulated by body system and PT with a breakdown by treatment. A subject with multiple AEs within body system was only counted once towards the total of this body system and treatment.
Patient Reported Outcome included: • 1. The TLFB cocaine: is a cocaine assessment method that obtains estimates of daily cocaine intake and has been evaluated with clinical and nonclinical populations. Using a calendar, people provide retrospective estimates of their daily cocaine use over a specified time period that can vary up to 12 months from the interview date. Several memory aids can be used to enhance recall (e.g., calendar; key dates serve as anchors for reporting cocaine use). […] The method is recommended for use when relatively precise estimates of cocaine use are necessary, especially when a complete use pre-posttreatment). Clinically, the TLFB can be used to provide feedback about one's cocaine consumption in an effort to increase a client's motivation to change. • 2. The TLFB alcohol: is a drinking assessment method that obtains estimates of daily drinking and has been evaluated with clinical and nonclinical populations. Using a calendar, people provide retrospective estimates of their daily drinking over a specified time period that can vary up to 12 months from the interview date. Several memory aids can be used to enhance recall (e.g., calendar; key dates serve as anchors for reporting drinking; standard drink conversion). […] The method is recommended for use when relatively precise estimates of drinking are necessary, especially when a complete picture of drinking days (i.e., high- and low-risk days) is needed (evaluating drinking pre/post-treatment). Clinically, the TLFB can be used to provide feedback about one's drinking in an effort to increase a client's motivation to change. Overall, the Alcohol TLFB method provides a relatively accurate portrayal of drinking, and has both clinical and research utility. • 3. The BDI-II: is instrument endorsed by the National Institute for Health and Clinical Excellence for use in primary care in measuring baseline depression severity and responsiveness to treatment. • 4. The STAI: is an assessment tool for measuring the presence and severity of current symptoms of anxiety and a generalized propensity to be anxious. There are 2 subscales within this measure. First, the State Anxiety Scale (S-Anxiety) evaluates the current state of anxiety, asking how respondents feel “right now,” using items that measure subjective feelings of apprehension, tension, nervousness, worry, and activation/arousal of the autonomic nervous system. […]

Question: Which “proportion of patients with cocaine abstinence in the last 3 weeks of the study” value [1] does the source give for `COC(=O)N1CC[C@@H]2[C@H]1CCC[C@@]2(O)C#Cc1cccc(C)c1` [mavoglurant, (-)-(3aR,4S,7aR)-4-Hydroxy-4-m-tolylethynyl-octahydro-indole-1-carboxylic acid methyl ester] here?
Answer: 41.4%

Question: And the “anxiety symptoms by STAI” value [2]?
Answer: reduced nonsignificantly

Question: And the “anxiety symptoms by STAI” value ([2]; listed as Mavoglurant)?
Answer: reduced anxiety and depressive symptoms

Question: And the “depressive symptoms by BDI” value [2]?
Answer: reduced nonsignificantly

Question: And the “depressive symptoms by BDI” value ([2]; listed as Mavoglurant)?
Answer: reduced anxiety and depressive symptoms

Question: And the “overall AE rate vs placebo group” value ([3]; CUD patients, 98-day treatment)?
Answer: comparable

Question: And the “overall safety and tolerability” value ([3]; CUD patients, 98-day treatment)?
Answer: safe and well tolerated

Question: What about the “rate of psychiatric symptoms vs placebo group” value ([3]; CUD patients, 98-day treatment) of the same compound?
Answer: higher rate of psychiatric symptoms

Question: What about the “vital signs, ECGs, clinical safety laboratory parameters” value ([3]; CUD patients, 98-day treatment) of the same compound?
Answer: no significant findings

Question: What about the “overall safety and tolerability” value ([3]; CUD patients, 98-day treatment, listed as Mavoglurant) of the same compound?
Answer: safe and well-tolerated

Question: And the “deaths or SAEs” value ([3]; mavoglurant group)?
Answer: no deaths or SAEs
